# Measurements published in US6872707B1, “Halo derivatives of 9-deoxo-9a-aza-homerythromycin A” (PLIVA farmaceutska industrija dionicko drustvo, priority 1999, dated 2005).
# Experiments:
# Type in all cases: cell-based
# [1] = system: test microorganisms sensitive to erythromycin; test: In vitro antibacterial activity against erythromycin-sensitive test microorganisms
# Description: (§1) In vitro action of the novel compounds was investigated on a series of standard and resistent test microorganisms. […] In N′-(C1-C6)haloalkylcarbamoyl derivatives similar traits were observed.
# [2] = system: S. aureus, E. faecalis and S. pneumoniae; test: In vitro antibacterial action of haloaryl derivatives on standard and resistent test microorganisms; details: comparison within the series
# Description: as §1
# resistent strains = test: In vitro antibacterial activity against resistent strains
# Description: as §1
structure (smiles),measurement,setting,value
"CC[C@H]1OC(=O)[C@H](C)[C@@H](O[C@H]2C[C@@](C)(OC)[C@@H](O)[C@H](C)O2)[C@H](C)[C@@H](O[C@@H]2O[C@H](C)C[C@H](N(C)C)[C@H]2O)[C@](C)(O)C[C@@H](C)CN(C(=S)Nc2cccc(C(F)(F)F)c2)[C@H](C)[C@@H](O)[C@]1(C)O [Example 21, 9-deoxo-9a-N-{N′-[(3-trifluoromethyl-phenyl)thiocarbamoyl]}-9a-aza-9a-homoerythromycin A]",activity against test microorganisms sensitive to erythromycin,[1],activity against test microorganisms sensitive to erythromycin
same,antibacterial in vitro activity (effectiveness),[2],the most active one
same,activity against resistent strains,resistent strains,showed an activity against resistent strains
